Results: patent US20040006120A1, “Use of histamine h3 receptor inverse agonists for the control of appetite and treatment of obesity” (priority 2003, published 2004)
Marks after values point to notes of the source that are not given here.

What was measured:
[1] = molecular target: T1, H3 receptor occupancy in the brain (Rattus norvegicus, UniProt Q9QYN8); assay: Ex vivo binding: H3 receptor occupancy in the brain after intraperitoneal administration; conditions: following intraperitoneal administration
T1 construct: H3 receptor occupancy in the brain following intraperitoneal administration; from tissue
T1 sequence (Q9QYN8 whole entry): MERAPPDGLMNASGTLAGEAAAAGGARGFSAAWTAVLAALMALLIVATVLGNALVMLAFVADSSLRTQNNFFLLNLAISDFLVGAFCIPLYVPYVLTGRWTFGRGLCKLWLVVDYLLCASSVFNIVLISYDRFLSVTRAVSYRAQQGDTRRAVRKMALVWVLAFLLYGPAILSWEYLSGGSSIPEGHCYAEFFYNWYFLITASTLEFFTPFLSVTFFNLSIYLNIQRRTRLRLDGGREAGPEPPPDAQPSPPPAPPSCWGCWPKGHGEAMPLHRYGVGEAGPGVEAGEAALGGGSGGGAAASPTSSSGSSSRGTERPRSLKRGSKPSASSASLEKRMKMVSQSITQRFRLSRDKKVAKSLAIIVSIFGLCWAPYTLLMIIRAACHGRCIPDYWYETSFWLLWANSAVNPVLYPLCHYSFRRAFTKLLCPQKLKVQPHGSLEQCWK
Source text: (§1) The percent reduction in food intake by rats two hours after intraperitoneal administration of each compound is shown in Table 5. […] In Table 5, * indicates a significant decrease in food intake compared to the vehicle-treated rats (t-test, p<0.05). The ex vivo binding values in Table 5 represent the drug dose required to obtain ½-maximal H3 receptor occupancy in the brain following intraperitoneal administration. The dose values shown in Table 5 represent the dosage of drug utilized during the food intake studies. In all cases, the tested dose exceeded the amount needed to obtain ½-maximal H3 receptor occupancy in the brain.

[2] = test system: food consumption by adult Sprague-Dawley rats; assay: Food intake by adult Sprague-Dawley rats; format: in vivo, rat; conditions: for Decrease in Food Intake (%): two hours following the onset of the dark cycle
Experimental: The compounds summarized in Table 3 were examined for their ability to suppress food consumption by adult Sprague-Dawley rats. Male Sprague Dawley rats were purchased from Harlan Laboratories of Indianapolis, Ind. Rats were housed one per cage and maintained on a 12 hour light/dark schedule (lights-out at 12:30 p.m.) with ad libitum access to powdered Teklad Mouse/Rat Diet 7012 (available from Harlan Laboratories of Indianapolis, Ind.) and water. Rats were acclimated to laboratory conditions and food for 1 to 2 weeks prior to initiating food intake studies. On the day of experiments, test compounds were solubilized or suspended in vehicle/carrier and administered to rats (i.p. or p.o.) 30 to 60 minutes prior to the onset of the dark cycle. Food intake was determined at 1, 2, 4, and 24 hours following the onset of the dark cycle. Alternatively, rats were fasted (water provided) for 24 hours prior to evaluating the effects of compounds on food intake. For these studies, compounds or vehicle/carrier were administered and rats were placed in standard small animal metabolism chambers with ad libitum access to powdered Teklad Mouse/Rat Diet 7012 and water. Food intake was determined at 2 and 4 hours following the onset of feeding.
Data is cumulative food intake in grams, mean ± sem. In the table, * indicates a significant decrease in food intake compared to the vehicle-treated rats (t-test, p<0.05).
as §1

Histamine H3 receptor = molecular target: T2, Histamine H3 receptor (Rattus norvegicus, UniProt Q9QYN8); assay: Histamine H3 receptor binding in rat cerebral cortical membranes with [3H]-Nα-methylhistamine, with and without GTPγS; conditions: in words
T2 construct: The cerebral cortical tissues were harvested and frozen on dry ice; from tissue; host or cells: cerebral cortex of male Sprague-Dawley rats (membrane preparation)
T2 sequence (Q9QYN8 whole entry): as above

Ex Vivo Binding: drug dose required to obtain ½-maximal H3 receptor occupancy in the brain [1] | Compound | Decrease in Food Intake (%) ([2]; Dose 10, intraperitoneal) | also measured
0.92 ± 0.01 mg/kg | C(=C/CCC1CCCCC1)/CCc1c[nH]cn1 [Compound 2, (3Z)-4-(6-cyclohexylhex-3-en-1-yl)imidazole] |  | Decrease in Food Intake (%) ([2]; Dose 3, intraperitoneal): 5.5 ± 0.8%; binding to GTPγS-treated cortical membrane preparation compared with non-treated preparation (Histamine H3 receptor): relatively little difference
˜15 mg/kg | N[C@H](/C=C\CCc1c[nH]cn1)CC1CCCCC1 [Compound 4, 4-(((5S)(3Z)-5-amino-6-cyclohexyl)hex-3-en-1-yl)imidazole] |  | Decrease in Food Intake (%) ([2]; Dose 20, intraperitoneal): 53.9 ± 11.1* %
8.0 ± 1.3 mg/kg | O=C(CCCCC1CCCCC1)N1CCC(c2c[nH]cn2)CC1 [Compound 5, 4-(N-(5-cyclohexylpentan-1-one-1-yl)piperidin-4-yl)imidazole] | 67.6 ± 9.6* % | 
0.08 ± 0.03 mg/kg | CC(C)(C)CCC#C[C@@H]1C[C@H]1c1c[nH]cn1 [Compound 6, (1R,2R)-trans-4-(2-(5,5-dimethylhex-1-ynyl)cyclopropyl)imidazole] |  | Decrease in Food Intake (%) ([2]; Dose 1, intraperitoneal): −4.6 ± 0.8%
2.9 ± 1.3 mg/kg | O=C(N[C@@H]1C[C@H]1c1c[nH]cn1)OCc1c(Cl)cccc1Cl [Compound 7, 4-((1R,2R)-trans-2-(O-(2,6-dichlorophenylmethyl)carboxamido)cyclopropyl)imidazole] | 0.8 ± 0.0% | 
5.6 ± 0.12 mg/kg | Fc1ccc(C(OCCCc2c[nH]cn2)c2ccc(F)cc2)cc1 [Compound 8, 3-(1H-imidazol-4-yl)propyl-di(p-fluorophenyl)-methylether] | 56.6 ± 8.3* % | 

Compound | Ex Vivo Binding: drug dose required to obtain ½-maximal H3 receptor occupancy in the brain [1] | Decrease in Food Intake (%) ([2]; Dose 10, intraperitoneal) | also measured
O=C(N[C@@H]1C[C@H]1c1c[nH]cn1)OCCC1CCCCC1 [Compound 1, 4-((1R,2R)-trans-2-(O(2-cyclohexylethyl)carboxamido)cyclopropyl)imidazole] | 31 ± 1.3 mg/kg | 32.6 ± 4.3* % | 
O=C(N[C@@H]1C[C@H]1c1c[nH]cn1)OCC1CCCCC1 [Compound 3, 4-((1R,2R)-trans-2-(O-(2-cyclohexylmethyl)carboxamido)cyclopropyl)imidazole] | 2.6 ± 1.3 mg/kg | 36.4 ± 3.3* % | duration of significant reduction of food consumption ([2]; single administration, 10 mg/kg i.p.): up to 24 hours
CC(C)(C)CCOC(=O)N[C@@H]1C[C@H]1c1c[nH]cn1 [Compound 9, 4-((1R,2R)-trans-2-(O-(3,3-dimethyl-but-1-yl)carboxamido)cyclopropyl)imidazole] | 3.7 ± 0.4 mg/kg | −25.1 ± 3.8% | 
